Measured values reported in patent EP4603105A1, “PHARMACEUTICAL COMPOSITION CONTAINING CYCLIC COMPOUND HAVING SELECTIVE KRAS INHIBITORY EFFECT AGAINST HRAS AND NRAS” (CHUGAI SEIYAKU KABUSHIKI KAISHA, priority 2022, dated 2024).
*1 amine or outer side, *2 acyl side, *3 side chain or, on linkers, in order; H or OH if unused. Where a SMILES comes first, the peptide text is derived from it. Bridges are numbered along the chain shown (N, C = ends). [ ]: non-standard residue; d: D form. The star is where a group is joined. hPhe(3,5-F2-4-CF3) = N[C@@H](CCc1cc(F)c(C(F)(F)F)c(F)c1)C(=O)O; hPhe(3-Cl-4-CF3) = N[C@@H](CCc1ccc(C(F)(F)F)c(Cl)c1)C(=O)O; X39 = O=C([C@H](Cc1ccc(C(F)(F)F)cc1)N(CC1CCC1)[*:1])[*:2]; NPrPhe(4-CF3) = CCCN[C@@H](Cc1ccc(C(F)(F)F)cc1)C(=O)O; NMeGly(cPent) = CN[C@H](C(=O)O)C1CCCC1; Pro(4,4-F2) = O=C(O)[C@@H]1CC(F)(F)CN1; NMeD = CN[C@@H](CC(=O)O)C(=O)O; NMeL = CN[C@@H](CC(C)C)C(=O)O; αMeV = CC(C)[C@](C)(N)C(=O)O; NMeAbu = CC[C@H](NC)C(=O)O; Morpholide = C1CN(*)CCO1; Ac5c = NC1(C(=O)O)CCCC1; Aze = O=C(O)[C@@H]1CCN1; Ac4c = NC1(C(=O)O)CCC1; Sar = CNCC(=O)O

What was measured:
[1] = system: human lung cancer strain NCI-H441; type: cell-based
Procedure, shortened: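 Step one: dispense the test compound in serial DMSO dilutions. Step three: add the reagent and measure […].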

[2] = molecular target: GDP-bound NRAS wild-type protein (Homo sapiens, UniProt P01111); experiment: Binding to NRAS by surface plasmon resonance (SPR), KD and KD ratio to KRAS
Sequence of GDP-bound NRAS wild-type protein (P01111 whole entry): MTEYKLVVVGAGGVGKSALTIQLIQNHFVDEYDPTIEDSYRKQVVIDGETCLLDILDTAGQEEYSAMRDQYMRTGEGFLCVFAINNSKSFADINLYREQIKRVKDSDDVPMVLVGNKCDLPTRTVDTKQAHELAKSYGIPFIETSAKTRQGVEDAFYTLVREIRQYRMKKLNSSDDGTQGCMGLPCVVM
Procedure, shortened: (§1)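 Biotinylated GDP-bound RAS was captured at about 100–300 RU. Running buffer: HBS pH 7.4, 10 mM MgCl2, 10 µM GDP, 1 mM DTT, 0.01% Tween 20, 4% DMSO.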

HRAS wild-type protein = HRAS wild-type protein (Homo sapiens, UniProt P01112); experiment: Binding to HRAS by surface plasmon resonance (SPR), KD and KD ratio to KRAS
Sequence of HRAS wild-type protein (P01112 whole entry): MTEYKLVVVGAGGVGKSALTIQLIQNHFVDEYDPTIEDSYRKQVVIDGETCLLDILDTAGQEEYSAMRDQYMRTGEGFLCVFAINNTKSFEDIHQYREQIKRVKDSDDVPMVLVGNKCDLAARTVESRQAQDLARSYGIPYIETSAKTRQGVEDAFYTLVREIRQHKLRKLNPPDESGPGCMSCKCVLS
Procedure, shortened: as §1

[3] = ratio of KD for GDP-bound NRAS wild-type protein to KD for KRAS
[4] = ratio of KD for HRAS wild-type protein to KD for KRAS
[5] = ratio of KD value for GDP-bound NRAS wild-type protein to KD value for KRAS (SPR)
[6] = ratio of KD value for HRAS wild-type protein to KD value for KRAS (SPR)
[7] = ratio of the KD value with respect to GDP-bound NRAS wild-type protein to the KD value with respect to KRAS
[8] = ratio of the KD value with respect to HRAS wild-type protein to the KD value with respect to KRAS

Row | Compound | IC50 [1] | NRAS /KRAS [2, 3] | HRAS /KRAS (HRAS wild-type protein; [4]) | NRAS /KRAS [2, 5] | HRAS /KRAS (HRAS wild-type protein; [6]) | NRAS /KRAS [2, 7] | HRAS /KRAS (HRAS wild-type protein; [8])
1 | CC[C@H](C)[C@@H]1NC(=O)[C@@H]2CCC/C=C/c3ccc(cc3)C[C@@H](C(=O)N(C)CC(=O)N[C@@H](CCc3ccc(Cl)c(Cl)c3)C(=O)N3C[C@H](OC(C)C)C[C@H]3C(=O)NC3(CC(C)(C)C3)C(=O)N(C)[C@@H](C3CCCC3)C(=O)N(C)[C@H](C(=O)N(C)CC)CC(=O)N2C)N2CC/C=C\C[C@@H](C2=O)N(C)C(=O)CN(C)C1=O [PP2595] | 12.7 nM | A (a compound having 10 or more and less than 20 is denoted as A) | B (a compound having 3 or more and less than 10 is denoted as B) | – | – | – | –
2 | CCO[C@@H]1C[C@H]2C(=O)NC3(CCC3)C(=O)N(C)[C@@H](C3CCCC3)C(=O)N(C)[C@H](C(=O)N(C)C)CC(=O)N(C)[C@@H](CC)C(=O)N[C@@H]([C@@H](C)CC)C(=O)N(C)CC(=O)N(C)[C@H]3CC(C)=CCN(C3=O)[C@@H](Cc3ccc(C(F)(F)F)cc3)C(=O)N(C)CC(=O)N[C@@H](CCc3cc(F)c(C(F)(F)F)c(F)c3)C(=O)N2C1 [PP1034] | 96.8 nM | C (A compound having a KD ratio of 0.1 or more and less than 3 is denoted as C) | C (A compound having a KD ratio of 0.1 or more and less than 3 is denoted as C) | – | – | – | –
3 | C#CC[C@H]1C(=O)N[C@@H]([C@@H](C)CC)C(=O)N(C)CC(=O)N(C)[C@H]2C/C=C\CCN(C2=O)[C@@H](Cc2ccc(C(F)(F)F)cc2)C(=O)N(C)CC(=O)N[C@@H](CCc2cc(F)c(C(F)(F)F)c(F)c2)C(=O)N2C[C@H](F)C[C@H]2C(=O)NC2(CC(C)(C)C2)C(=O)N(C)[C@@H](C2CCCC2)C(=O)N(C)[C@H](C(=O)N(C)CC)CC(=O)N1C [PP1691] | 3.1 nM | – | – | A (a compound having 10 or more and less than 20 is denoted as A) | A (a compound having 10 or more and less than 20 is denoted as A) | – | –
4 | CCO[C@@H]1C[C@H]2C(=O)N(C)C3(CCC3)C(=O)N(C)[C@@H](C3CCCC3)C(=O)N(C)[C@H](C(=O)N(C)C)CC(=O)N(C)[C@@H](C3CC3)C(=O)N[C@@H]([C@@H](C)CC)C(=O)N(C)CC(=O)N(C)[C@H]3C/C=C\CCN(C3=O)[C@@H](Cc3ccc(C)cc3)C(=O)N(C)CC(=O)N[C@@H](CCc3cc(F)c(C(F)(F)F)c(F)c3)C(=O)N2C1 [PP1783] | 3.5 nM | – | – | A (a compound having 10 or more and less than 20 is denoted as A) | B (a compound having 3 or more and less than 10 is denoted as B) | – | –
5 | CCCN1C(=O)[C@@H]2CCN2C(=O)CN(C)C(=O)[C@H]([C@@H](C)CC)NC(=O)[C@H](CC(C)C)N(C)C(=O)C[C@@H](C(=O)N(C)C)NC(=O)[C@H](C2CCCC2)N(C)C(=O)C2(CCC2)NC(=O)[C@@H]2CC(F)(F)CN2C(=O)[C@H](CCc2ccc(C(F)(F)F)c(Cl)c2)NC(=O)CN(C)C(=O)[C@@H]1Cc1ccc(C(F)(F)F)cc1 [PP0388] ([NMeL]I[Sar][Aze][NPrPhe(4-CF3)][Sar][hPhe(3-Cl-4-CF3)][Pro(4,4-F2)][Ac4c][NMeGly(cPent)]D-NMe2; lactam N-11) | 11.6 nM | – | – | – | – | C (A compound having a KD ratio of 0.1 or more and less than 3 is denoted as C) | B (a compound having 3 or more and less than 10 is denoted as B)
6 | CC[C@H](C)[C@@H]1NC(=O)[C@H](C2CC2)N(C)C(=O)C[C@@H](C(=O)N(C)C)N(C)C(=O)[C@H](C2CCCC2)N(C)C(=O)C2(CCCC2)N(C)C(=O)[C@@H]2C[C@@H](C)CN2C(=O)[C@H](CCc2cc(F)c(C(F)(F)F)c(F)c2)NC(=O)CN(C)C(=O)[C@H](Cc2ccc(C)cc2)N2CC/C=C\C[C@@H](C2=O)N(C)C(=O)CN(C)C1=O [PP1813] | 22.6 nM | – | – | A (a compound having 10 or more and less than 20 is denoted as A) | B (a compound having 3 or more and less than 10 is denoted as B) | – | –
7 | CCCN1C(=O)[C@@H]2CCN2C(=O)CN(C)C(=O)[C@H]([C@@H](C)CC)NC(=O)[C@H](CC(C)C)N(C)C(=O)C[C@@H](C(=O)N2CCOCC2)N(C)C(=O)[C@H](C2CCCC2)N(C)C(=O)[C@](C)(C(C)C)NC(=O)[C@@H]2CCCN2C(=O)[C@H](CCc2cc(F)c(C(F)(F)F)c(F)c2)NC(=O)CN(C)C(=O)[C@@H]1Cc1ccc(C(F)(F)F)cc1 [PP0792] ([NMeL]I[Sar][Aze][NPrPhe(4-CF3)][Sar][hPhe(3,5-F2-4-CF3)]P[αMeV][NMeGly(cPent)][NMeD]-Morpholide; lactam N-11) | 112 nM | C (A compound having a KD ratio of 0.1 or more and less than 3 is denoted as C) | B (a compound having 3 or more and less than 10 is denoted as B) | – | – | – | –
8 | CC[C@H](C)[C@@H]1NC(=O)[C@H](CC(C)C)N(C)C(=O)C[C@@H](C(=O)N2CCOCC2)N(C)C(=O)[C@H](C2CCCC2)N(C)C(=O)C2(CCCC2)NC(=O)[C@@H]2CCCN2C(=O)[C@H](CCc2ccc(C(F)(F)F)c(Cl)c2)NC(=O)CN(C)C(=O)[C@H](Cc2ccc(C(F)(F)F)cc2)N(CC2CCC2)C(=O)CN(C)C(=O)CN(C)C1=O [PP0123] ([NMeL]I[Sar][Sar][X39][Sar][hPhe(3-Cl-4-CF3)]P[Ac5c][NMeGly(cPent)][NMeD]-Morpholide; lactam N-11) | 12.5 nM | B (a compound having 3 or more and less than 10 is denoted as B) | C (A compound having a KD ratio of 0.1 or more and less than 3 is denoted as C) | – | – | – | –
9 | CCO[C@@H]1C[C@H]2C(=O)NC3(CCC3)C(=O)N(C)[C@@H](C3CCCC3)C(=O)N(C)[C@H](C(=O)N(C)C)CC(=O)N(C)[C@@H](CC)C(=O)N[C@@H]([C@@H](C)CC)C(=O)N(C)CC(=O)N(C)[C@H]3CCCCCN(C3=O)[C@@H](Cc3ccc(C(F)(F)F)cc3)C(=O)N(C)CC(=O)N[C@@H](CCc3cc(F)c(C(F)(F)F)c(F)c3)C(=O)N2C1 [PP0663] | 22.7 nM | – | – | – | – | B (a compound having 3 or more and less than 10 is denoted as B) | B (a compound having 3 or more and less than 10 is denoted as B)
10 | CCCN1C(=O)CN(C)C(=O)CN(C)C(=O)[C@H]([C@@H](C)CC)NC(=O)[C@H](CC)N(C)C(=O)C[C@@H](C(=O)N2CCOCC2)N(C)C(=O)[C@H](C2CCCC2)N(C)C(=O)C2(CCCC2)NC(=O)[C@@H]2CC(F)(F)CN2C(=O)[C@H](CCc2ccc(C(F)(F)F)c(Cl)c2)NC(=O)CN(C)C(=O)[C@@H]1Cc1ccc(C(F)(F)F)cc1 [PP0202] ([NMeAbu]I[Sar][Sar][NPrPhe(4-CF3)][Sar][hPhe(3-Cl-4-CF3)][Pro(4,4-F2)][Ac5c][NMeGly(cPent)][NMeD]-Morpholide; lactam N-11) | 3.9 nM | B (a compound having 3 or more and less than 10 is denoted as B) | C (A compound having a KD ratio of 0.1 or more and less than 3 is denoted as C) | – | – | – | –
11 | C#CC[C@H]1C(=O)N[C@@H]([C@@H](C)CC)C(=O)N(C)CC(=O)N(C)[C@H]2C/C=C\CCN(C2=O)[C@@H](Cc2ccc(C(F)(F)F)cc2)C(=O)N(C)CC(=O)N[C@@H](CCc2cc(F)c(C(F)(F)F)c(F)c2)C(=O)N2C[C@H](OCC)C[C@H]2C(=O)NC2(CC(F)(F)C2)C(=O)N(C)[C@@H](C2CCCC2)C(=O)N(C)[C@H](C(=O)N(C)CCC)CC(=O)N1C [PP1737] | 2.7 nM | – | – | A (a compound having 10 or more and less than 20 is denoted as A) | A (a compound having 10 or more and less than 20 is denoted as A) | – | –
12 | CCCN1C(=O)CN(C)C(=O)CN(C)C(=O)[C@H]([C@@H](C)CC)NC(=O)[C@@H]2CCCCCCOc3ccc(cc3)C[C@H]1C(=O)N(C)CC(=O)N[C@@H](CCc1cc(F)c(C(F)(F)F)c(F)c1)C(=O)N1C[C@H](OCC)C[C@H]1C(=O)NC1(CCCC1)C(=O)N(C)[C@@H](C1CCCC1)C(=O)N(C)[C@H](C(=O)N(C)C)CC(=O)N2C [PP0896] | 3.1 nM | C (A compound having a KD ratio of 0.1 or more and less than 3 is denoted as C) | C (A compound having a KD ratio of 0.1 or more and less than 3 is denoted as C) | – | – | – | –
13 | CC[C@H](C)[C@@H]1NC(=O)[C@H](CC(C)C)N(C)C(=O)C[C@@H](C(=O)N2CCOCC2)N(C)C(=O)[C@H](C2CCCC2)N(C)C(=O)C2(CCCC2)NC(=O)[C@@H]2CCCN2C(=O)[C@H](CCc2ccc(C(F)(F)F)c(Cl)c2)NC(=O)CN(C)C(=O)[C@H](Cc2ccc(Cl)cc2)N2CC=CC[C@@H](C2=O)N(C)C(=O)CN(C)C1=O [PP0533] | 8.9 nM | – | – | – | – | C (A compound having a KD ratio of 0.1 or more and less than 3 is denoted as C) | C (A compound having a KD ratio of 0.1 or more and less than 3 is denoted as C)
14 | CCO[C@@H]1C[C@H]2C(=O)NC3(CC(C)(C)C3)C(=O)N(C)[C@@H](C3CCCC3)C(=O)N(C)[C@H](C(=O)N(C)CC)CC(=O)N(C)[C@H]3CCCCCCc4ccc(cc4)C[C@@H](C(=O)N(C)CC(=O)N[C@@H](CCc4ccc(C(F)(F)F)c(OC)c4)C(=O)N2C1)N1CC/C=C\C[C@@H](C1=O)N(C)C(=O)CN(C)C(=O)[C@H]([C@@H](C)CC)NC3=O [PP2260] | 1.9 nM | – | – | – | – | A (a compound having 10 or more and less than 20 is denoted as A) | A (a compound having 10 or more and less than 20 is denoted as A)
